Data taken from paper PMC5225183, “Fingerprinting of neurotoxic compounds using a mouse embryonic stem cell dual luminescence reporter assay” (Archives of Toxicology, 2016).
Marks after values point to notes of the source that are not given here.

How the values were obtained:
[1] = printed in column Concentration in humans; ref http://pubchem.ncbi.nlm.nih.gov/compound/16682730; cited from earlier work
EF1α promoter = tested on: EF1α promoter
Text: (§1) Dual luciferase expressing CGR8-2Luc cells were obtained by transduction of mouse ESC CGR8 cells with the 2K7 EFS-Renilla Luciferase (RLuc)/Talpha1-Firefly Luciferase (FLuc) vector as previously described (Suter et al. [2006], [2009]); EFS corresponds to the short promoter of the eukaryotic translation elongation factor 1 alpha (EF1α), and Talpha1 to the Tubulin α1 (Tα1) promoter. Tα1 was selected as a promoter active in neurons, including early stages of neural differentiation. EF1α was originally selected to function as a constitutive promoter; however, it responds to cellular differentiation as well as to various chemicals, as previously shown (Kern et al. [2013]). Cells were cultured on 0.1 % gelatin-coated dishes in CGR8-2luc maintenance medium: BHK21 medium, supplemented with 10 % fetal calf serum, L-glutamine, non-essential amino acids, penicillin/streptomycin, and leukemia inhibitory factor (LIF). CGR8 cells were grown in a feeder-independent manner (embryonic pluripotent stem cells, ESCs) as described in protocol 1 (Fig. 1) before testing compounds of interest.
(§2) Fig. 1 Synopsis of experimental protocols. The impact of compounds on neural promoter activity (FLuc, Firefly Luciferase under the control of the Tα1 promoter), general promoter activity (RLuc, Renilla Luciferase under the control of the EF1α promoter), and amount of DNA (PI, propidium iodide fluorescence in cell homogenates) was investigated in undifferentiated mouse embryonic pluripotent stem cells (ESCs) and on ESC-derived neurons. Arrows indicate the time of measurement of the three parameters. a Protocol for testing compounds effects on ESCs. CGR8-2Luc cells were plated on gelatin-coated 96-well plates in maintenance medium (BHK21 medium containing 10 % FCS, L-glutamine, NEAA, P/S, and LIF). Twenty-four hours later, cells were exposed to compounds for forty-eight hours. b Protocol for testing compounds on ESC-derived neurons. CGR8-2Luc cells were co-cultured with MS5 cells to induce neural differentiation in DMEM medium containing 15 % KO-serum, NEAA, β-mercaptoethanol, and P/S. On day 5, cells were detached and seeded on polyornithine-coated plates in DMEM medium containing N2 supplement, bFGF, and P/S; compound exposure was from day 6 to day 8
(§3) To test compounds on ESC-derived neurons, neuronal differentiation was carried out as previously described (Suter et al. [2009]; Xu et al. [2014]). Briefly, CGR8-2Luc cells were seeded on irradiated bone marrow-derived stromal MS5 cells and cultivated for 4 days in DMEM medium containing 15 % Knock-out™ Serum Replacement, non-essential amino acids, beta-mercaptoethanol, and penicillin/streptomycin. At day 5, cells were then re-plated (3 × 10^5 cells/cm^2) on polyornithine-coated 96-well plates in N2 medium containing DMEM, N2 supplement, penicillin/streptomycin, and 10 ng/ml basic human fibroblast growth factor (bFGF) (Invitrogen). […] To assess toxicity of compounds on undifferentiated pluripotent stem cells (ESCs), CGR8-2Luc cells were plated at 45,000 cells/cm^2 on 0.1 % gelatin-coated dishes in BHK21 medium, supplemented with 10 % fetal calf serum, L-glutamine, non-essential amino acids, penicillin/streptomycin, and leukemia inhibitory factor (LIF). After 24 h, compounds were added and incubated for 48 h, before luciferase expression and PI fluorescence were analyzed. In all experiments, methylmercury was used as a positive control at a concentration of 5 µM.
(§4) Luciferase activities were measured with a Dual-Luciferase™ Reporter system kit. CGR8-2Luc ES cells were lysed in 96-well plates according to the manufacturer’s instructions. Luminescence measurements were performed on a Fluostar Optima reader. Luminescence counts were expressed as percentage of promoter activity normalized by comparison with the control wells treated by DMSO.

[2] = tested on: Tubulin α1 (Tα1) promoter
Text: as §1, §2, §3, §4

[3] = Table S1, three classes; ref per compound in the footnotes of Table S1; cited from earlier work
[4] = tested on: Tubulin α1 (Tα1) promoter; assay: cells
Text: as §1, §2, §3, §4

CGR8-2Luc ESCs = tested on: CGR8-2Luc ESCs
Text: as §2, §3
(§5) After measurement of luciferase activity, DNA quantity was determined by PI assay, as previously described (Xu et al. [2014]). PI was added to cell homogenates after the luciferase test, at a final concentration of 50 µg/ml and incubated for 2 h. After incubation, fluorescence intensity was measured on a Flexstation 3 microplate reader (Excitation: 544 nm ± 15 nm; Emission: 620 nm ± 15 nm). Results are expressed as percentage of control. Propidium iodide (PI) measures total DNA content as an approximation of the cell number. A decrease in PI fluorescence was interpreted as a decrease in cell number and therefore throughout the text referred to as cytotoxicity.
(§6) Lowest adverse effect level (LOAEL) was defined as the lowest tested concentrations that lead to a statistically significant decrease for a given read-out (FLuc, RLuc, and PI) compared to baseline. “Baseline” was not in all cases defined by untreated cells, but may also refer to, e.g., a state of increased activity due to low, non-toxic compound concentrations.

ESC-derived neurons = tested on: ESC-derived neurons
Text: as §2, §3, §5, §6

[5] = tested on: ESCs and ESC-derived neurons; assay: Dual luminescence reporter test system, all readouts in ESCs and ESC-derived neurons
Text: as §2, with “neurons.” for “neurons. CGR8-2Luc cells were co-cultured with MS5 cells to induce neural differentiation in DMEM medium containing 15 % KO-serum, NEAA, β-mercaptoethanol, and P/S. On day 5, cells were detached and seeded on polyornithine-coated plates in DMEM medium containing N2 supplement, bFGF, and P/S; compound exposure was from day 6 to day 8”
as §3, with “At” for “To test compounds on ESC-derived neurons, neuronal differentiation was carried out as previously described (Suter et al. [2009]; Xu et al. [2014]). Briefly, CGR8-2Luc cells were seeded on irradiated bone marrow-derived stromal MS5 cells and cultivated for 4 days in DMEM medium containing 15 % Knock-out™ Serum Replacement, non-essential amino acids, beta-mercaptoethanol, and penicillin/streptomycin. At”
Luciferase activities were measured with a Dual-Luciferase™ Reporter system kit. CGR8-2Luc ES cells were lysed in 96-well plates according to the manufacturer’s instructions. Luminescence measurements were performed on a Fluostar Optima reader. Luminescence counts were expressed as percentage of promoter activity normalized by comparison with the control wells treated by DMSO. […] parameters were measured in homogenates of ESCs and in ESC-derived neurons: (1) FLuc, reflecting the activity of early neural promoter Tα1. FLuc increases during neuronal differentiation. Many neurotoxic compounds may affect FLuc expression, either through impact on neuronal differentiation, through changes of neuronal gene expression, or through killing of neurons.
as §5, with “PI” for “After measurement of luciferase activity, DNA quantity was determined by PI assay, as previously described (Xu et al. [2014]). PI”
To describe the shape of different concentration–response curves, arbitrary scores were assigned as follows: 0 for “no change,” 1 for “down-stroke,” 2 for “bimodal profile,” and 3 for “up-stroke” (Fig. S1). A curve was classified as “down-stroke” or “up-stroke” if the change in response values comparative to control was statistically significant (p value <0.05, one-way ANOVA with post hoc Dunnett) with an additional requirement of a 30 % decrease or increase of mean response value relative to controls, respectively. If the absolute change in mean response values was below 30 % the curve was classified as “no change.” A curve was classified as “bimodal” if first up-stroke and subsequently down-stroke was observed.

rats = details: rats, gestational days 6–17; ref Australian Therapeutic Goods Administration [2014]; cited from earlier work

| Structure (SMILES) | oral lethal dose [1] | LOAEL ESC EF1α (EF1α promoter) [µM] | LOAEL Neurons EF1α (EF1α promoter) [µM] | LOAEL ESC Tα1 [2] [µM] | class based on clinical evidence for neurotoxicity [3] | LOAEL Neurons Tα1 [4] [µM] | LOAEL ESC DNA (CGR8-2Luc ESCs) [µM] | LOAEL Neurons DNA (ESC-derived neurons) [µM] | Number of non-cytotoxic changes [5] | oral dose inducing developmental toxicity (rats) [mg/kg/day] |
| --- | --- | --- | --- | --- | --- | --- | --- | --- | --- | --- |
| CC(=O)[O][Hg][c]1ccccc1 [Phenylmercuric acetate] | 5–50 mg/kg (oral lethal dose)^i | 0.5 | 0.5 | 0.5 | Possibly (developmental) | 0.5 | 0.5 | 0.5 | 0 |  |
| CC(=O)O[C@H]1CC[C@@]2(C)C(=CC[C@@H]3[C@@H]2CC[C@]2(C)C(c4cccnc4)=CC[C@@H]32)C1 [abiraterone acetate] |  |  |  |  |  |  |  |  |  | ≥ 10 |
